From the NIST ThermoML archive (doi:10.1021/acs.jced.8b01135)

Test: xn = mol fraction of the nth substance listed
Settings: 102 kPa, Liquid; for speed of sound: Frequency=3 MHz, Single path-length method; for mass density: Vibrating tube method; for viscosity: Concentric cylinders viscometry

CCCC1CCCCC1 [1-cyclohexylpropane] + CCCCCCCCCCCC
Settings	mass density [kg/m3]	speed of sound [m/s]	viscosity [mPa·s]
288.15 K, x1 = 0.1007	755.55	1317.5	–
288.15 K, x1 = 0.2001	758.92	1317.8	–
288.15 K, x1 = 0.3001	762.54	1318.2	–
288.15 K, x1 = 0.4011	766.49	1319.3	–
288.15 K, x1 = 0.5	770.63	1320.1	–
288.15 K, x1 = 0.6004	775.15	1320.9	–
288.15 K, x1 = 0.6995	780	1322.1	–
288.15 K, x1 = 0.7998	785.31	1323.8	–
288.15 K, x1 = 0.8997	791.13	1326.1	–
288.15 K, x1 = 1	797.42	1328.6	–
293.15 K, x1 = 0.1007	751.91	1297.9	1.44
293.15 K, x1 = 0.2001	755.26	1298.2	1.39
293.15 K, x1 = 0.3001	758.87	1298.6	1.34
293.15 K, x1 = 0.4011	762.8	1299.8	1.28
293.15 K, x1 = 0.5	766.92	1300.2	1.23
293.15 K, x1 = 0.6004	771.42	1300.8	1.18
293.15 K, x1 = 0.6995	776.23	1301.9	1.13
293.15 K, x1 = 0.7998	781.51	1303.4	1.08
293.15 K, x1 = 0.8997	787.31	1305.3	1.03
293.15 K, x1 = 1	793.53	1307.7	0.981
298.15 K, x1 = 0.1007	748.27	1278.4	–
298.15 K, x1 = 0.2001	751.61	1278.6	–
298.15 K, x1 = 0.3001	755.2	1279	–
298.15 K, x1 = 0.4011	759.11	1280.3	–
298.15 K, x1 = 0.5	763.2	1280.8	–
298.15 K, x1 = 0.6004	767.68	1280.8	–
298.15 K, x1 = 0.6995	772.46	1281.8	–
298.15 K, x1 = 0.7998	777.71	1283.1	–
298.15 K, x1 = 0.8997	783.46	1284.7	–
298.15 K, x1 = 1	789.63	1287.1	–
303.15 K, x1 = 0.1007	744.62	1259.1	1.23
303.15 K, x1 = 0.2001	747.95	1259.2	1.18
303.15 K, x1 = 0.3001	751.53	1259.5	1.14
303.15 K, x1 = 0.4011	755.41	1260.9	1.1
303.15 K, x1 = 0.5	759.48	1261.1	1.06
303.15 K, x1 = 0.6004	763.93	1261	1.02
303.15 K, x1 = 0.6995	768.68	1261.8	0.977
303.15 K, x1 = 0.7998	773.89	1262.9	0.936
303.15 K, x1 = 0.8997	779.6	1264.3	0.897
303.15 K, x1 = 1	785.72	1266.6	0.856
313.15 K, x1 = 0.1007	737.32	1221.1	1.05
313.15 K, x1 = 0.2001	740.61	1221.1	1.01
313.15 K, x1 = 0.3001	744.15	1221.3	0.979
313.15 K, x1 = 0.4011	747.98	1222.3	0.946
313.15 K, x1 = 0.5	752.01	1222.6	0.914
313.15 K, x1 = 0.6004	756.42	1222.1	0.882
313.15 K, x1 = 0.6995	761.11	1222.6	0.85
313.15 K, x1 = 0.7998	766.24	1223.3	0.818
313.15 K, x1 = 0.8997	771.86	1224.3	0.783
313.15 K, x1 = 1	777.88	1226.2	0.75
323.15 K, x1 = 0.1007	729.98	1183.9	0.909
323.15 K, x1 = 0.2001	733.24	1183.7	0.882
323.15 K, x1 = 0.3001	736.75	1183.8	0.856
323.15 K, x1 = 0.4011	740.52	1184.5	0.831
323.15 K, x1 = 0.5	744.5	1184.6	0.802
323.15 K, x1 = 0.6004	748.86	1183.9	0.776
323.15 K, x1 = 0.6995	753.49	1184.1	0.75
323.15 K, x1 = 0.7998	758.55	1184.6	0.721
323.15 K, x1 = 0.8997	764.09	1185.1	0.694
323.15 K, x1 = 1	770	1186.5	0.668
333.15 K, x1 = 0.1007	722.61	1147.6	0.792
333.15 K, x1 = 0.2001	725.82	1147.3	0.769
333.15 K, x1 = 0.3001	729.3	1147.3	0.75
333.15 K, x1 = 0.4011	733.02	1147.5	0.729
333.15 K, x1 = 0.5	736.95	1147.3	0.707
333.15 K, x1 = 0.6004	741.26	1146.7	0.685
333.15 K, x1 = 0.6995	745.82	1146.7	0.663
333.15 K, x1 = 0.7998	750.81	1146.8	0.64
333.15 K, x1 = 0.8997	756.27	1146.9	0.618
333.15 K, x1 = 1	762.09	1147.7	0.594

CCCCCCCCC1CCCCC1 [octylcyclohexane] + CCCCCCCCCCCC
Settings	mass density [kg/m3]	speed of sound [m/s]	viscosity [mPa·s]
288.15 K, x1 = 0.1	759.33	1326.2	–
288.15 K, x1 = 0.1998	766.24	1335.1	–
288.15 K, x1 = 0.3002	772.95	1344.1	–
288.15 K, x1 = 0.3998	779.63	1353.1	–
288.15 K, x1 = 0.4948	785.9	1361.6	–
288.15 K, x1 = 0.5997	792.69	1370.8	–
288.15 K, x1 = 0.6996	798.98	1379.4	–
288.15 K, x1 = 0.7999	805.34	1388.2	–
288.15 K, x1 = 0.9	811.48	1396.9	–
288.15 K, x1 = 1	817.58	1405.5	–
293.15 K, x1 = 0.1	755.72	1306.9	1.61
293.15 K, x1 = 0.1998	762.65	1315.8	1.74
293.15 K, x1 = 0.3002	769.38	1324.8	1.91
293.15 K, x1 = 0.3998	776.08	1333.9	2.05
293.15 K, x1 = 0.4948	782.36	1342.3	2.23
293.15 K, x1 = 0.5997	789.17	1351.6	2.44
293.15 K, x1 = 0.6996	795.48	1360.3	2.66
293.15 K, x1 = 0.7999	801.86	1369.1	2.91
293.15 K, x1 = 0.9	808.01	1377.8	3.2
293.15 K, x1 = 1	814.13	1386.4	3.52
298.15 K, x1 = 0.1	752.11	1287.6	–
298.15 K, x1 = 0.1998	759.06	1296.5	–
298.15 K, x1 = 0.3002	765.81	1305.5	–
298.15 K, x1 = 0.3998	772.53	1314.8	–
298.15 K, x1 = 0.4948	778.83	1323.4	–
298.15 K, x1 = 0.5997	785.65	1332.6	–
298.15 K, x1 = 0.6996	791.98	1341.2	–
298.15 K, x1 = 0.7999	798.37	1350.2	–
298.15 K, x1 = 0.9	804.53	1358.7	–
298.15 K, x1 = 1	810.67	1367.4	–
303.15 K, x1 = 0.1	748.5	1268.4	1.36
303.15 K, x1 = 0.1998	755.45	1277.3	1.47
303.15 K, x1 = 0.3002	762.24	1286.4	1.6
303.15 K, x1 = 0.3998	768.97	1295.9	1.69
303.15 K, x1 = 0.4948	775.29	1304.4	1.82
303.15 K, x1 = 0.5997	782.13	1313.8	1.98
303.15 K, x1 = 0.6996	788.47	1322.2	2.15
303.15 K, x1 = 0.7999	794.88	1331.4	2.34
303.15 K, x1 = 0.9	801.06	1339.9	2.55
303.15 K, x1 = 1	807.2	1348.6	2.79
313.15 K, x1 = 0.1	741.26	1230.7	1.16
313.15 K, x1 = 0.1998	748.26	1239.6	1.24
313.15 K, x1 = 0.3002	755.08	1248.9	1.33
313.15 K, x1 = 0.3998	761.84	1258.6	1.43
313.15 K, x1 = 0.4948	768.19	1267.1	1.52
313.15 K, x1 = 0.5997	775.07	1276.7	1.64
313.15 K, x1 = 0.6996	781.45	1285.1	1.77
313.15 K, x1 = 0.7999	787.89	1294.4	1.92
313.15 K, x1 = 0.9	794.1	1302.8	2.08
313.15 K, x1 = 1	800.28	1311.6	2.26
323.15 K, x1 = 0.1	734	1193.7	1
323.15 K, x1 = 0.1998	741.03	1202.7	1.07
323.15 K, x1 = 0.3002	747.89	1212.2	1.14
323.15 K, x1 = 0.3998	754.69	1221.9	1.23
323.15 K, x1 = 0.4948	761.08	1230.5	1.31
323.15 K, x1 = 0.5997	768	1240.1	1.38
323.15 K, x1 = 0.6996	774.42	1248.7	1.48
323.15 K, x1 = 0.7999	780.88	1258.1	1.6
323.15 K, x1 = 0.9	787.14	1266.6	1.73
323.15 K, x1 = 1	793.35	1275.5	1.87
333.15 K, x1 = 0.1	726.7	1157.6	0.865
333.15 K, x1 = 0.1998	733.78	1166.9	0.923
333.15 K, x1 = 0.3002	740.68	1176.4	0.984
333.15 K, x1 = 0.3998	747.52	1186	1.06
333.15 K, x1 = 0.4948	753.94	1194.8	1.12
333.15 K, x1 = 0.5997	760.9	1204.5	1.18
333.15 K, x1 = 0.6996	767.37	1213.3	1.26
333.15 K, x1 = 0.7999	773.86	1222.7	1.36
333.15 K, x1 = 0.9	780.16	1231.5	1.46
333.15 K, x1 = 1	786.41	1240.3	1.57
